Results as given in patent US7288654B2, “Fused-ring pyridine derivative, process for producing the same, and use” (Takeda Pharmaceutical Company Ltd, priority 2003, dated 2007).

Molecular target: T1, human CCR5 (Homo sapiens, UniProt P51681)
T1 construct: expressed in transfected cells
Assay: [125I]-RANTES binding inhibition in CCR5/CHO cells (CCR5 antagonist activity)
Conditions: test compound 1 μM, 100 pM [125I]-RANTES, room temperature, 40 minutes
Protocol: (1) Cloning of Human CCR5 Chemokine Receptor
Cloning of a CCR5 gene was conducted from human spleen cDNA by a PCR method. Using 0.5 ng of spleen cDNA (Toyobo Co., Ltd., QUICK-Clone cDNA) as a template, the PCR reaction was carried out in a DNA Thermal Cycler 480 (Perkin Elmer) using a TaKaRa EX Taq (Takara Shuzo Co., Ltd.) (reaction conditions: 30 cycles of treatments at 95° C. for 1 minute, at 60° C. for 1 minute, and at 75° C. for 5 minutes) by adding 25 pmol of primers, SEQ ID NO. 1 (sequence length: 34; sequence type: nucleic acid; number of chains: a single chain; topology: linear; sequence kind: other nucleic acid, synthetic DNA) described in Experimental Example (1) of WO 99/32100, and SEQ ID NO. 2 (sequence length: 34; sequence type: nucleic acid; number of chains: a single chain; topology: linear; sequence kind: other nucleic acid, synthetic DNA) described in Experimental Example (1) of WO 99/32100, respectively, which were prepared by referring to the base sequence of the CCR5 gene described by Samson et al. (Biochemistry 35 (11), 3362-3367 (1996)). The PCR products were subjected to agarose gel electrophoresis to collect DNA fragments of about 1.0 kb. Then, the CCR5 gene was cloned using an Original TA Cloning Kit (Funakoshi Co., Ltd.).
(2) Preparation of Plasmid for Expression of Human CCR5
The plasmids obtained above were digested with restriction enzymes XbaI (Takara Shuzo Co., Ltd.) and BamHI (Takara Shuzo Co., Ltd.), and subjected to agarose gel electrophoresis to collect DNA fragments of about 1.0 kb. The DNA fragments and a plasmid pcDNA3.1 (Funakoshi Co., Ltd.) for expression in animal cells, which was previously digested with XbaI and BamHI, were mixed and ligated by DNA Ligation Kit Ver.2 (Takara Shuzo Co., Ltd.). Transformation of E. coli JM109 competent cells (Takara Shuzo Co., Ltd.) gave plasmid pCKR5.
(3) Introduction of the Plasmid for Expression of Human CCR5 into CHO—K1 Cells and Expression Thereof
CHO—K1 cells grown in a 750 ml tissue culture flask (Becton Dickinson) using Ham's F12 medium (Nihon Pharmaceutical Co., Ltd.) containing 10% fetal bovine serum (Lifetech Oriental) were collected from the flask by using 0.5 g/L trypsin-0.2 g/L EDTA (Lifetech Oriental). The cells were then washed with PBS (Lifetech Oriental), centrifuged (1000 rpm, 5 minutes), and suspended in PBS. Next, DNA was introduced into the cells using Gene Pulser (Bio-Rad Laboratories Inc.) under the following conditions. […]
Subsequently, the Geneticin-resistant strains were cultured in the 96-well plate (Becton Dickinson), and then CCR5-expressing cells were selected from the resistant strains. […] The cells to which the ligand bound specifically, i.e., CCR5/CHO strains, were selected by measurement of radioactivity by γ-counter. […]

T1 sequence (P51681 whole entry): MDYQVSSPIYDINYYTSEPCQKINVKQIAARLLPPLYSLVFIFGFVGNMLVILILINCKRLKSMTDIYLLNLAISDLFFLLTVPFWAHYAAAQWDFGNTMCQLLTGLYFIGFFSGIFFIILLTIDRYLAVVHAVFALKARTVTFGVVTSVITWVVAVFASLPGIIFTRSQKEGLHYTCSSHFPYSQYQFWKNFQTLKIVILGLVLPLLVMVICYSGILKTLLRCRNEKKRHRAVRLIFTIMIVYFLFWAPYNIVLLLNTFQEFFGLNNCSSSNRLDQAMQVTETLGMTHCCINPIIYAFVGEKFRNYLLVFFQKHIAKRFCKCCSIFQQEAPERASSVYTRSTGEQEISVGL

In order of rising “Binding Inhibitory Ratio (%)” value:
1. CCCCOCCOc1ccc(-c2cnc3c(c2)C=C(C(=O)Nc2ccc([S@@+]([O-])Cc4cncn4CCC)cc2)CCCN3CCC)cc1 [Compound 2, (S)-3-[4-(2-butoxyethoxy)phenyl]-10-propyl-N-[4-[[(1-propyl-1H-imidazol-5-yl)methyl]sulfinyl]phenyl]-7,8,9,10-tetrahydropyrido[2,3-b]azocine-6-carboxamide]  93%
2. CCCCOCCOc1ccc(-c2cnc3c(c2)C=C(C(=O)Nc2ccc([S@@+]([O-])Cc4cncn4CCC)cc2)CCCN3CC(C)C)cc1 [Compound 1, (S)-3-[4-(2-butoxyethoxy)phenyl]-10-isobutyl-N-[4-[[(1-propyl-1H-imidazol-5-yl)methyl]sulfinyl]phenyl]-7,8,9,10-tetrahydropyrido[2,3-b]azocine-6-carboxamide]  94%
3. CCCCOCCOc1ccc(-c2cnc3c(c2)C=C(C(=O)Nc2ccc([S@@+]([O-])Cc4cncn4CCC)cc2)CCN3CC(C)C)cc1 [Compound 3, (S)-3-[4-(2-butoxyethoxy)phenyl]-9-isobutyl-N-[4-[[(1-propyl-1H-imidazol-5-yl)methyl]sulfinyl]aniline]-8,9-dihydro-7H-pyrido[2,3-b]azepine-6-carboxamide]  100%
4. CCCCOCCOc1ccc(-c2cnc3c(c2)C=C(C(=O)Nc2ccc(CN(C)C4CCOCC4)cc2)CCN3CC(C)C)cc1 [Compound 4, 3-[4-(2-butoxyethoxy)phenyl]-9-isobutyl-N-[4-[[methyl(tetrahydro-2H-pyran-4-yl)amino]methyl]phenyl]-8,9-dihydro-7H-pyrido[2,3-b]azepine-6-carboxamide]  100%
